Results: US20260356819A1, “OXOISOINDOLINYL-SUBSTITUTED […] DERIVATIVE AND USE THEREOF” (GLUETACS THERAPEUTICS (SHANGHAI) CO., LTD., priority 2023, published 2026)

Columns and labels:
Assay type in all cases: cell-based
Settings in all cases: compounds at 50 nM and 500 nM
[1] = target: T1, WEE1 (Homo sapiens, UniProt P30291+Q96SW2); assay: Western blot degradation of WEE1 in hPBMCs (24 h)
T1 construct: The supernatant was aspirated as the extracted total cell protein; endogenous in cells; host or cells: human peripheral blood mononuclear cells (hPBMCs)
In short: (§1)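 hPBMCs (1×10^6 cells/mL) were treated with compound at 50 nM and 500 nM for 24 h, lysed in RIPA with protease inhibitors and analysed by SDS-PAGE/Western blot. Band grayscale, normalised to internal control, gave protein remaining (%); DC50 estimated versus DMSO bands.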

[2] = target: T2, IKZF1 (Homo sapiens, UniProt Q13422+Q96SW2); assay: Western blot degradation of IKZF1 in hPBMCs (24 h)
T2 construct: The supernatant was aspirated as the extracted total cell protein; endogenous in cells; host or cells: human peripheral blood mononuclear cells (hPBMCs)
In short: as §1

[3] = target: T3, IKZF2 (Homo sapiens, UniProt Q96SW2+Q9UKS7); assay: Western blot degradation of IKZF2 in hPBMCs (24 h)
T3 construct: The supernatant was aspirated as the extracted total cell protein; endogenous in cells; host or cells: human peripheral blood mononuclear cells (hPBMCs)
In short: as §1

[4] = target: T4, IKZF3 (Homo sapiens, UniProt Q96SW2+Q9UKT9); assay: Western blot degradation of IKZF3 in hPBMCs (24 h)
T4 construct: The supernatant was aspirated as the extracted total cell protein; endogenous in cells; host or cells: human peripheral blood mononuclear cells (hPBMCs)
In short: as §1

[5] = target: T5, CK1α (Homo sapiens, UniProt P48729+Q96SW2); assay: Western blot degradation of CK1α in hPBMCs (24 h)
T5 construct: The supernatant was aspirated as the extracted total cell protein; endogenous in cells; host or cells: human peripheral blood mononuclear cells (hPBMCs)
In short: as §1

[6] = target: T6, GSPT1 (Homo sapiens, UniProt P15170+Q96SW2); assay: Western blot degradation of GSPT1 in hPBMCs (24 h)
T6 construct: The supernatant was aspirated as the extracted total cell protein; endogenous in cells; host or cells: human peripheral blood mononuclear cells (hPBMCs)
In short: as §1

T6 sequence (P15170 whole entry): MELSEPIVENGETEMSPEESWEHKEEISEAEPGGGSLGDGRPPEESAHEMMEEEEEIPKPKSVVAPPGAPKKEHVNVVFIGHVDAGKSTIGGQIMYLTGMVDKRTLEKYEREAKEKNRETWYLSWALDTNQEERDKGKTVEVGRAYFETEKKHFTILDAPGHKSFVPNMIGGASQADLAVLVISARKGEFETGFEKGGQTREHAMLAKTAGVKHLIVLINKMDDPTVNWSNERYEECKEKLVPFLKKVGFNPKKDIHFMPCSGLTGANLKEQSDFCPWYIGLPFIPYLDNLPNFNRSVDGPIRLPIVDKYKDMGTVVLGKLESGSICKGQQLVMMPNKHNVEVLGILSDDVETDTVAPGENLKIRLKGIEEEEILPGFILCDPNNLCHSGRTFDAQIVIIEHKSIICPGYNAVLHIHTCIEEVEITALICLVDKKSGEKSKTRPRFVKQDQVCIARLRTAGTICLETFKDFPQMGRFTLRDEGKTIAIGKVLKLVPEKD
T6 sequence (Q96SW2 whole entry): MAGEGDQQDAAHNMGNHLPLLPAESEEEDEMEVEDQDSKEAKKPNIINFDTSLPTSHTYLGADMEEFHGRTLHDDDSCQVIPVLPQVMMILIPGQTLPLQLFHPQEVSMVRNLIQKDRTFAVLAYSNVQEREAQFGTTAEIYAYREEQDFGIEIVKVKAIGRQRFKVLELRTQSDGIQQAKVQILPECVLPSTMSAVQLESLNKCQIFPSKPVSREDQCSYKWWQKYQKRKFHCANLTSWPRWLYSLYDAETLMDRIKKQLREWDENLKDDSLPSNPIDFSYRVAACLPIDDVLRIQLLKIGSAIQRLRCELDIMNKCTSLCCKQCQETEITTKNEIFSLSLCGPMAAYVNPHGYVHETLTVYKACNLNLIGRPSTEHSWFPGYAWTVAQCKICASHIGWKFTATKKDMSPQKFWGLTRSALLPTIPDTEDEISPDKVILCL
T6 sequence (Q16531 whole entry partner): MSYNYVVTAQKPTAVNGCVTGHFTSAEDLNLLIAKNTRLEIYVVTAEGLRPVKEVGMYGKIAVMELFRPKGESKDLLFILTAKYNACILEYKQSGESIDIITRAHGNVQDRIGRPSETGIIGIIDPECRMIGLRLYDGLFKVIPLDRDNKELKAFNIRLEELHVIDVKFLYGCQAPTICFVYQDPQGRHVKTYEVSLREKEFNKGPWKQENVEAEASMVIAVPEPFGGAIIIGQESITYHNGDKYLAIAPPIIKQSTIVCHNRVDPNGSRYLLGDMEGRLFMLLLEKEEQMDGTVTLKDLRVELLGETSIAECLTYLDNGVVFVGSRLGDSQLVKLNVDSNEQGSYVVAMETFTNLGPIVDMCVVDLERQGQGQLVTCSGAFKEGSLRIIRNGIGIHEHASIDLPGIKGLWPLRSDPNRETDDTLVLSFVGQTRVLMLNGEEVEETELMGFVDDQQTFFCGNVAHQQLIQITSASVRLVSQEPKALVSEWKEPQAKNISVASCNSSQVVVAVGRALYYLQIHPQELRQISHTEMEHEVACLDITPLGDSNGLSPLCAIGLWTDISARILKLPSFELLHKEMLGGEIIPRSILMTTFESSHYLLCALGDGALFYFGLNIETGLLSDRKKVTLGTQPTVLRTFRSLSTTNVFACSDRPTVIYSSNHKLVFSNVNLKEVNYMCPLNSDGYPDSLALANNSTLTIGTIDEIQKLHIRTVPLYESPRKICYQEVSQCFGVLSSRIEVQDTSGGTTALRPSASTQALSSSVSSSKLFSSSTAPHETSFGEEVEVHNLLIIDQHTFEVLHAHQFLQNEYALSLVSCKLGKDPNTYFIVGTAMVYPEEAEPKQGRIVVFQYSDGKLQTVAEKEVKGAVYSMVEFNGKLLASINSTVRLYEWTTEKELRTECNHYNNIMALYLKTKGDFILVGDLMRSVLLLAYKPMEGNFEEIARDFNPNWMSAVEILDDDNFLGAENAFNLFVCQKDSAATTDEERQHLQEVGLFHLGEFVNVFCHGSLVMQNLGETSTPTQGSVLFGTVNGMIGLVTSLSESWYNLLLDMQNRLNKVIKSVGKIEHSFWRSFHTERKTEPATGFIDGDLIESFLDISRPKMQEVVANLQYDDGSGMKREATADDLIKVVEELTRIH
T2 sequence (Q13422 whole entry): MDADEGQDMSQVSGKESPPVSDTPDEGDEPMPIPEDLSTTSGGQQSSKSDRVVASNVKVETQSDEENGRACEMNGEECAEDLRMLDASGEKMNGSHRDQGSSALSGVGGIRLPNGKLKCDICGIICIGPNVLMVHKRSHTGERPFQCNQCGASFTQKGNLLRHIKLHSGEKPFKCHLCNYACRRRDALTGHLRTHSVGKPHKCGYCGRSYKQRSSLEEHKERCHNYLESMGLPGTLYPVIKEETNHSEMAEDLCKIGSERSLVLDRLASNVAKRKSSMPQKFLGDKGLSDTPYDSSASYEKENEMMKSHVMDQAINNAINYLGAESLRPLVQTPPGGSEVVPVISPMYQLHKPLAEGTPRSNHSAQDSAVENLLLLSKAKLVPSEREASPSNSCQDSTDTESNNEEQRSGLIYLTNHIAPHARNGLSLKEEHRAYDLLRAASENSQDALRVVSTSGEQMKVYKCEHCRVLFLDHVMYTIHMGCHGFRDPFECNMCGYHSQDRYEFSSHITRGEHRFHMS
T2 sequence (Q96SW2 whole entry): as the sequence (Q96SW2 whole entry) above
T2 sequence (Q16531 whole entry partner): as the sequence (Q16531 whole entry partner) above
T1 sequence (P30291 whole entry): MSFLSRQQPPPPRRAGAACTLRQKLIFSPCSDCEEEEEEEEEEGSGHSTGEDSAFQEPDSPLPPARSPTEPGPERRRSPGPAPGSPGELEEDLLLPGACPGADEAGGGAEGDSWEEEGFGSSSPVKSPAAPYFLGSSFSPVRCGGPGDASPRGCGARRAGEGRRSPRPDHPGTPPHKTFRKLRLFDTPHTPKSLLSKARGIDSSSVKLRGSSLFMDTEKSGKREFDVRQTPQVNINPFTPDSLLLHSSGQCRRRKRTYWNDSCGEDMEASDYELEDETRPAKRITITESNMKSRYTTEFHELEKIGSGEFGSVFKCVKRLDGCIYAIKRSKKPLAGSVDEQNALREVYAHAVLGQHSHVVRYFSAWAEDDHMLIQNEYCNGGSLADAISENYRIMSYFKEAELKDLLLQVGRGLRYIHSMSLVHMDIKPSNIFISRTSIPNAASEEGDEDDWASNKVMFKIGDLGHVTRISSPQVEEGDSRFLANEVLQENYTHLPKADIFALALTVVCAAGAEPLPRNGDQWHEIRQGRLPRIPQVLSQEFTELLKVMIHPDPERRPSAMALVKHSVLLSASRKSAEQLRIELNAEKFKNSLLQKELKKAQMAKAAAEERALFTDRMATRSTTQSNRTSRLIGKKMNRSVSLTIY
T1 sequence (Q96SW2 whole entry): as the sequence (Q96SW2 whole entry) above
T1 sequence (Q16531 whole entry partner): as the sequence (Q16531 whole entry partner) above
T3 sequence (Q9UKS7 whole entry): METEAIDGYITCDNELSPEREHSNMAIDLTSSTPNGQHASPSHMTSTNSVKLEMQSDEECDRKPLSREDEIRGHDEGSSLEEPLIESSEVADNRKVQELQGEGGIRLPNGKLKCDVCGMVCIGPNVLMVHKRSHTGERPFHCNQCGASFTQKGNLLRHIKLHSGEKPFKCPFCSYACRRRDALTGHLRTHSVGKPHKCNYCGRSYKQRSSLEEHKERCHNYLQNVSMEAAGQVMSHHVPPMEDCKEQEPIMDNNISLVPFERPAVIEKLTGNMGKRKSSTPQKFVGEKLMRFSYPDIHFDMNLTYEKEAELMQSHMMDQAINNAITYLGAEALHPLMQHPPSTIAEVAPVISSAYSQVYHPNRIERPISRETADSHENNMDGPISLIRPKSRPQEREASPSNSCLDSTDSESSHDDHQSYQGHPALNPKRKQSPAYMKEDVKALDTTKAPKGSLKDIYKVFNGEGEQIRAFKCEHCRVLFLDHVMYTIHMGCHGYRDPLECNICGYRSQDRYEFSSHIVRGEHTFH
T3 sequence (Q96SW2 whole entry): as the sequence (Q96SW2 whole entry) above
T3 sequence (Q16531 whole entry partner): as the sequence (Q16531 whole entry partner) above
T5 sequence (P48729 whole entry): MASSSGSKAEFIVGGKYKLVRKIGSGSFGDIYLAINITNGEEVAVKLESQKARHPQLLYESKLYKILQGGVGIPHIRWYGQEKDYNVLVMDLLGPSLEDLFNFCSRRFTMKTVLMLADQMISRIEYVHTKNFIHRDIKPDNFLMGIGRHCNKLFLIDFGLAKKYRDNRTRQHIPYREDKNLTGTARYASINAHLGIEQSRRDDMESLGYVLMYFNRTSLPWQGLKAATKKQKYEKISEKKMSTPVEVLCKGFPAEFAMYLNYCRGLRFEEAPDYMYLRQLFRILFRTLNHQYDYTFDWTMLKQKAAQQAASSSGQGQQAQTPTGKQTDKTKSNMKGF
T5 sequence (Q96SW2 whole entry): as the sequence (Q96SW2 whole entry) above
T5 sequence (Q16531 whole entry partner): as the sequence (Q16531 whole entry partner) above

Row | SMILES | WEE1 substrate protein remaining % [1] | IKZF1 substrate protein remaining % [2] | IKZF2 substrate protein remaining % [3] | IKZF3 substrate protein remaining % [4] | CK1α substrate protein remaining % [5] | GSPT1 substrate protein remaining % [6]
1 | O=C1CCN(N2Cc3cc(CN4CCN(c5ccnc(Cl)c5F)CC4)ccc3C2=O)C(=O)N1 [GT-07069, 1-(5-((4-(2-chloro-3-fluoropyridin-4-yl)piperazin-1-yl)methyl)-1-oxoisoindolin-2-yl)dihydropyrimidine-2,4(1H,3H)-dione] | A (0% ≤ substrate protein remaining % ≤80%) | B (80%< substrate protein remaining % ≤100%) | B (80%< substrate protein remaining % ≤100%) | B (80%< substrate protein remaining % ≤100%) | B (80%< substrate protein remaining % ≤100%) | B (80%< substrate protein remaining % ≤100%)
2 | O=C1CCN(N2C(=O)c3ccc(CN4CCN(c5ccncc5)CC4)cc3C2=O)C(=O)N1 [GT-07073, 2-(2,4-dioxotetrahydropyrimidin-1(2H)-yl)-5-((4-(pyridin-4-yl)piperazin-1-yl)methyl)isoindoline-1,3-dione] | A (0% ≤ substrate protein remaining % ≤80%) | B (80%< substrate protein remaining % ≤100%) | B (80%< substrate protein remaining % ≤100%) | B (80%< substrate protein remaining % ≤100%) | B (80%< substrate protein remaining % ≤100%) | B (80%< substrate protein remaining % ≤100%)
3 | O=C1CCN(N2Cc3cc(CN4CCN(c5cnccn5)CC4)ccc3C2=O)C(=O)N1 [GT-07160, 1-(1-oxo-5-((4-(pyrazin-2-yl)piperazin-1-yl)methyl)isoindolin-2-yl)dihydropyrimidine-2,4(1H,3H)-dione] | B (80%< substrate protein remaining % ≤100%) | B (80%< substrate protein remaining % ≤100%) | A (0% ≤ substrate protein remaining % ≤80%) | B (80%< substrate protein remaining % ≤100%) | A (0% ≤ substrate protein remaining % ≤80%) | A (0% ≤ substrate protein remaining % ≤80%)
4 | Cc1cc(N2CCN(Cc3ccc4c(c3)C(=O)N(N3CCC(=O)NC3=O)C4=O)CC2)ccn1 [GT-07161, 2-(2,4-dioxotetrahydropyrimidin-1(2H)-yl)-5-((4-(2-methylpyridin-4-yl)piperazin-1-yl)methyl)isoindoline-1,3-dione] | B (80%< substrate protein remaining % ≤100%) | B (80%< substrate protein remaining % ≤100%) | A (0% ≤ substrate protein remaining % ≤80%) | B (80%< substrate protein remaining % ≤100%) | B (80%< substrate protein remaining % ≤100%) | A (0% ≤ substrate protein remaining % ≤80%)
5 | O=C1CCN(N2C(=O)c3ccc(CN4CCN(c5nccc(F)c5F)CC4)cc3C2=O)C(=O)N1 [GT-07162, 5-((4-(3,4-difluoropyridin-2-yl)piperazin-1-yl)methyl)-2-(2,4-dioxotetrahydropyrimidin-1(2H)-yl)isoindoline-1,3-dione] | B (80%< substrate protein remaining % ≤100%) | B (80%< substrate protein remaining % ≤100%) | A (0% ≤ substrate protein remaining % ≤80%) | B (80%< substrate protein remaining % ≤100%) | A (0% ≤ substrate protein remaining % ≤80%) | A (0% ≤ substrate protein remaining % ≤80%)
6 | O=C1CCN(N2C(=O)c3ccc(CN4CCN(c5ccncc5Br)CC4)cc3C2=O)C(=O)N1 [GT-07163, 5-((4-(3-bromopyridin-4-yl)piperazin-1-yl)methyl)-2-(2,4-dioxotetrahydropyrimidin-1(2H)-yl)isoindoline-1,3-dione] | B (80%< substrate protein remaining % ≤100%) | B (80%< substrate protein remaining % ≤100%) | A (0% ≤ substrate protein remaining % ≤80%) | B (80%< substrate protein remaining % ≤100%) | B (80%< substrate protein remaining % ≤100%) | A (0% ≤ substrate protein remaining % ≤80%)
7 | O=C1CCN(N2C(=O)c3ccc(CN4CCN(c5ccncc5F)CC4)cc3C2=O)C(=O)N1 [GT-07164, 2-(2,4-dioxotetrahydropyrimidin-1(2H)-yl)-5-((4-(3-fluoropyridin-4-yl)piperazin-1-yl)methyl)isoindoline-1,3-dione] | B (80%< substrate protein remaining % ≤100%) | B (80%< substrate protein remaining % ≤100%) | A (0% ≤ substrate protein remaining % ≤80%) | B (80%< substrate protein remaining % ≤100%) | B (80%< substrate protein remaining % ≤100%) | A (0% ≤ substrate protein remaining % ≤80%)
8 | O=C1CCN(N2C(=O)c3ccc(CN4CCN(c5ccncc5Cl)CC4)cc3C2=O)C(=O)N1 [GT-07165, 5-((4-(3-chloropyridin-4-yl)piperazin-1-yl)methyl)-2-(2,4-dioxotetrahydropyrimidin-1(2H)-yl)isoindoline-1,3-dione] | B (80%< substrate protein remaining % ≤100%) | B (80%< substrate protein remaining % ≤100%) | A (0% ≤ substrate protein remaining % ≤80%) | B (80%< substrate protein remaining % ≤100%) | B (80%< substrate protein remaining % ≤100%) | A (0% ≤ substrate protein remaining % ≤80%)
9 | O=C1CCN(N2C(=O)c3ccc(CN4CCN(c5ccnc(Cl)c5F)CC4)cc3C2=O)C(=O)N1 [GT-07166, 5-((4-(2-chloro-3-fluoropyridin-4-yl)piperazin-1-yl)methyl)-2-(2,4-dioxotetrahydropyrimidin-1(2H)-yl)isoindoline-1,3-dione] | B (80%< substrate protein remaining % ≤100%) | B (80%< substrate protein remaining % ≤100%) | A (0% ≤ substrate protein remaining % ≤80%) | B (80%< substrate protein remaining % ≤100%) | B (80%< substrate protein remaining % ≤100%) | A (0% ≤ substrate protein remaining % ≤80%)
10 | O=C1CCN(N2C(=O)c3ccc(CN4CCN(c5ccnc(Br)c5F)CC4)cc3C2=O)C(=O)N1 [GT-07167, 5-((4-(2-bromo-3-fluoropyridin-4-yl)piperazin-1-yl)methyl)-2-(2,4-dioxotetrahydropyrimidin-1(2H)-yl)isoindoline-1,3-dione] | B (80%< substrate protein remaining % ≤100%) | B (80%< substrate protein remaining % ≤100%) | A (0% ≤ substrate protein remaining % ≤80%) | B (80%< substrate protein remaining % ≤100%) | B (80%< substrate protein remaining % ≤100%) | A (0% ≤ substrate protein remaining % ≤80%)
11 | O=C1CCN(N2C(=O)c3ccc(CN4CCN(c5ccnc(Cl)c5Br)CC4)cc3C2=O)C(=O)N1 [GT-07168, 5-((4-(3-bromo-2-chloropyridin-4-yl)piperazin-1-yl)methyl)-2-(2,4-dioxotetrahydropyrimidin-1(2H)-yl)isoindoline-1,3-dione] | B (80%< substrate protein remaining % ≤100%) | B (80%< substrate protein remaining % ≤100%) | A (0% ≤ substrate protein remaining % ≤80%) | B (80%< substrate protein remaining % ≤100%) | B (80%< substrate protein remaining % ≤100%) | A (0% ≤ substrate protein remaining % ≤80%)
